The target of one test is T1, 5-HT2 receptor (Rattus norvegicus, UniProt P14842).
T1 construct: Freezed cerebral cortex dissected out from rats were homogenized; from tissue; host or cells: rat cerebral cortex, crude synaptosomal membranes
The test is described as follows: Affinity for serotonin 2 (5-HT2) receptor, 3H-Ketanserin binding test. As for the experimental part:
Affinity for serotonin 2(5-HT2)receptor (^3 H-Ketanserin binding test).
The supernatant was centrifuged at 40,000× g for 20 minutes at 0° C. and the resulting pellets was homogenized in 30 volumes of ice-cold 50 mM Tris-HCI buffer (pH.7.7) and incubated at 37° C. for 10 minutes. The suspension was centrifuged at 40,000× g for 20 minutes at 0° C. again. The resulting pellet was homogenized in 100 volumes of the above buffer and provided as synaptosome membranes solution for the next assay.
To the aliquots (900 m) of synaptosome membranes solution were added 50 ml solution of ^3 H-Ketanserin solution at the terminal concentration of […] and 50 ml of test compound or its medium, and incubated at 37° C. for 20 minutes. After completion of the reaction, the mixture was rapidly vacuum-filtered through Whatman^R GF/B filters. The filters were washed three times with 5 ml of the above buffer, and then the radioactivity of the residue remaining on the filters was measured by liquid scintillation counter. Non specific binding was determined under the presence of […] of mianserin.

Another test has as its target T2, D2 receptor (Rattus norvegicus, UniProt P61169).
T2 construct: Freezed corpus striatum dissected out from rats were homogenized; from tissue; host or cells: rat corpus striatum, crude synaptosomal membranes
The test is described as follows: Affinity for dopamine 2 (D2) receptor, 3H-Spiperone binding test. As to conditions: rat corpus striatum, 3H-Spiperone 0.2 nM, 37° C. 20 minutes; read-out: D2 affinity expressed as IC50. As for the experimental part:
Affinity for dopamine 2 (D2)receptor (^3 H-Spiperone binding test.)
Preparation of crude synaptosome fraction and binding assays were conducted in accordance with the method reported in European Journal of Pharmacology, vol 46, page 377,1977 by I.Creese et al. Freezed corpus striatum dissected out from rats were homogenized in 100 volumes of ice cold 50 mM Tris-HCl buffer (pH.7.7) and the suspension was centrifuged at 500× g for 10 minutes at 0° C.
The supernatant was centrifuged at 50,000× g for 15 minutes at 0° C. and the resulting pellet was homogenized in 100 volumes of the above buffer and then the suspension was centrifuged at 50,000× g for 15 minutes at 0° C. again. The resulting pellet was homogenized in 150 volumes of 50 mM Tris-HCl buffer (PH 7.1) containing 120 mM potassium chloride, 2 mM calcium chloride, 1 mM magnesium chloride, 0,1 ascorbic acid and […] pargyline. The suspension was incubated at 37° C. for 10 minutes and then provided as synaptosome membranes solution for the next assays. To the aliquots (900 m) of synaptosome membranes solution were added 50 ml of H-Spiperone solution at the terminal concentration of 0.2 nM and 50 ml of test compound solution or 50 ml of its medium, and incubated at 37° C. for 20 minutes. After completion of the reaction, the mixture was rapidly vacuum-filtered through Whatman^R GF/B filters. The filters were washed three times with 5 ml of the above buffer, and then the radioactivity of the residue remaining on the filters was measured by liquid scintillation counter. Nonspecific binding was determined under presence of […] of L)-Sulpiride 50% Inhibition concentration (IC50) of the test compound was graphically determined.

The target in the next test is T3, 5-HT1A receptor (Rattus norvegicus, UniProt P19327).
T3 construct: Freezed hippocampus dissected out from rats were homogenized; from tissue; host or cells: rat hippocampus, crude synaptosomal membranes
T3 sequence (P19327 1-422): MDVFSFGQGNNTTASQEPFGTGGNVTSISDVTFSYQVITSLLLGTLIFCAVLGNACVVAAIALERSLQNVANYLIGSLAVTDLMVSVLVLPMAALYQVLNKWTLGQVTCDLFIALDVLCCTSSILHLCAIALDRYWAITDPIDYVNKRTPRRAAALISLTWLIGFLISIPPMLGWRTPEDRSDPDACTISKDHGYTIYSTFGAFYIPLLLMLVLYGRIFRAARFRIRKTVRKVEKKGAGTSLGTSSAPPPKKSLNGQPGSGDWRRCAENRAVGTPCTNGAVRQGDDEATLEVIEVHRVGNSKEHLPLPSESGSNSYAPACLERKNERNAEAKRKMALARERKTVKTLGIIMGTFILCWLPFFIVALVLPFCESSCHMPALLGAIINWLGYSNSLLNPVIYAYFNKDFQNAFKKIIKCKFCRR
The test is described as follows: Affinity for serotonin 1A (5-HT1A) receptor, 3H-8-OH-DPAT binding test. The method, then:
Affinity for serotonin 1A (5-HT1A) receptor [^3 H-8-Hydroxy-2-dipropylaminotetralin (^3 H-8-OH-DPAT)binding test]
Preparation of crude synaptosome fraction and binding assay were conducted in accordance with the method reported in Journal of Neurochemistry, vol 44, page 1685, 1985 by Hall et al. Freezed hippocampus dissected out from rats were homogenized in 40 volumes of ice cold 50 mM Tris-HCl buffer (pH. 7.4) and the suspension was centrifuged at 500× g for 10 minutes at 0° C.
The supernatant was centrifuged at 40,000× g for 20 minutes at 0° C. and the resulting pellet was homogenized in 40 volumes of the above buffer and incubated at 37° C. for 10 minutes. After completion of reaction, the suspension was centrifuged at 40,000× g for 20 minutes at 0° C. The resulting pellet was washed twice by resuspension in 40 volumes of the above buffer and centrifugation, and finally suspended in 60 volumes of ice-cold 50 mM Tris-HCI buffer (pH 7.4) containing 1 mM manganese chloride for use in the next assay.
To the aliquots ([…]) of synaptosome membranes solution were added 50 ml of tritiated 8-OH-DPAT solution at the terminal concentration of 0.2 nM and 50 ml of test compound solution or 50 ml of its medium, and incubated at 37° C. for 10 minutes. Then to the mixture was added 5 ml of ice-cold 50 mM Tris-HCI buffer (pH 7.4) rapidly vacuum-filtered through Whatman^R GF/B filters and washed twice with 5 ml of the same buffer. The radioactivity of the residue remaining on the filters was measured by liquid scintillation counter. Nonspecific binding was determined under the presence of 10^-5 M serotonin (5-HT). 50% Inhibition concentration (IC50) of the test compound was graphically determined.

The test system of another test is PKC. Put plainly: PKC translocation in hippocampal synaptosomes (Western blot). Format: cell-based. As to conditions: 15 min at 30° C., control = 100, dose not given. The method, then:
PKC translocation in different brain's area
Purified synaptosomes have been obtained following the procedure described by Dunkley (Dunkley P. R., Health J. W:, Harrison S. M., Jarvie P. E., Glenfield P. J. and Rostas J. A. P.
A rapid percolation gradient procedure for isolation of synaptosomes directly from Si fraction: homogeneity and morphology of subcellular fractions. Brain res 441:59-71, 1988).
Synaptosomes purified from cortex, hippocampus were incubated (10 mg/ml) for 15 min at 30° C. in presence of increasing doses of the compounds of the present invention dissolved in tartaric acid (pH 7.0) or of the vehicle alone.
After incubation, purified synaptosomes were collected in cold Krebs buffer containing 10 mM EGTA and then processed according to Shearmann et al (Shearman M. S., Shinomura T., Oda T. and Nishizuka Y. Protein kinase C subspecies in adult rat hippocampal synaptosomes. Activation by diacylglycerol and arachidonic acid. FEBS Lett 279:261-264, 1991).
Synaptosomes have been lysed in this solution for 30 min at 4° C. with stirring. […]
PKC on Western blots was detected with a polyclonal total PKC antibody (Upstate Biotechnology). […] Antigen antibody complexes were detected by enhanced chemiluminescence. Results have been analysed by computer assisted Image analysis and expressed as per cent of PKC translocation in control conditions.
In general terms: In western blotting, separated proteins are transferred to a membrane and probed.

A further test addresses D1 receptor. Put plainly: Affinity for D1 receptor (method not described). The test is classed as binding. The note with it: read-out: D1 affinity expressed as IC50.
Where [1] appears, read: rat hippocampus, 3H-8-OH-DPAT 0.2 nM, 37° C. 10 minutes, read-out: 5-HT1A affinity expressed as IC50.

Structures are written as SMILES. Read-outs that look alike come from different tables or passages of the source.

T1 sequence (P14842 whole entry): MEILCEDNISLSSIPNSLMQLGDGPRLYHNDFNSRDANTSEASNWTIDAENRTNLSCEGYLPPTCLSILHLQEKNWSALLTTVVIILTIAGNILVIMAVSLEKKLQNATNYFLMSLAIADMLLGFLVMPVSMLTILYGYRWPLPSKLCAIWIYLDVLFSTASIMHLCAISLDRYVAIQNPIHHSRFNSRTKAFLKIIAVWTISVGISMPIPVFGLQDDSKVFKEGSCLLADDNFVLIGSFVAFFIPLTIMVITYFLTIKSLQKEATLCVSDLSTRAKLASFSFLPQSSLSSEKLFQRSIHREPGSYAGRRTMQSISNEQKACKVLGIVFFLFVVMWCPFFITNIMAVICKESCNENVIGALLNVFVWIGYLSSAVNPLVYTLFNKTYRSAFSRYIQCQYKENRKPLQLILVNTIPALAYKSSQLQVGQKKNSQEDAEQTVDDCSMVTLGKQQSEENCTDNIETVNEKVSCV
T2 sequence (P61169 whole entry): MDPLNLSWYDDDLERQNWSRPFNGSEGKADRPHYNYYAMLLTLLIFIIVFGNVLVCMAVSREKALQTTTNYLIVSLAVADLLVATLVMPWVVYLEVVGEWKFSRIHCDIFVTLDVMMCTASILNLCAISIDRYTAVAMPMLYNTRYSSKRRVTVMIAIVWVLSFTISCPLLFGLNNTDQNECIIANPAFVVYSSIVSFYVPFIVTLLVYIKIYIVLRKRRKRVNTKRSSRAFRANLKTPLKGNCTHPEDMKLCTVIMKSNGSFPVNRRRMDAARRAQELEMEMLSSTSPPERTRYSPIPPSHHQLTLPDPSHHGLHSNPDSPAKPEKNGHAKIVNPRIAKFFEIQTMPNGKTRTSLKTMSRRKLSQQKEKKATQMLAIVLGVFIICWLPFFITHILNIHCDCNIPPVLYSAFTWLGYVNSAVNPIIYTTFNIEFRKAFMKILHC

By IC50 is commonly meant the point on the concentration scale where inhibition reaches its midpoint. Regarding `CO[C@]12C[C@@H](Cc3noc(-c4cncc(Br)c4)n3)CN(C)[C@@H]1Cc1cn(C)c3cccc2c13` [Example 2, 1,6-Dimethyl-8β-methyl-[5-(5-bromo-pyridin-3-yl)-1,2,4-oxadiazol-3-yl]-10α-methoxy-ergoline], the IC50 on 5-HT2 receptor was 2400 nM; on D2 receptor it was 3640 nM; on 5-HT1A receptor (setting [1]), 200 nM.

As for `CO[C@]12C[C@@H](Cc3nc(-c4cncc(Br)c4)no3)CN(C)[C@@H]1Cc1cn(C)c3cccc2c13` [Example 4, 1,6-Dimethyl-8β-methyl-[3-(5-bromo-pyridin-3-yl)-1,2,4-oxadiazol-5-yl]-10α-methoxy-ergoline], the results for the IC50 on 5-HT2 receptor, at D2 receptor and on 5-HT1A receptor (setting [1]) were 3400 nM, 2930 nM and 300 nM, respectively. In addition, in the test with PKC, the “PKC translocation in hippocampal synaptosomes, expressed as per cent of PKC translocation in control conditions” value is reported as 126 per cent.

`CO[C@]12C[C@@H](c3nnc(-c4cncc(Br)c4)o3)CN(C)[C@@H]1Cc1cn(C)c3cccc2c13` [Example 8, 1,6-Dimethyl-8β-[2-(5-bromo-pyridin-3-yl)-1,3,4-oxadiazol-5-yl]-10α-methoxy-ergoline]: the IC50 at 5-HT2 receptor stood at 27 nM; at D1 receptor, 2040 nM; on D2 receptor, 1950 nM; on 5-HT1A receptor, 9 nM.

Take `CO[C@]12C[C@@H](Cc3nnc(-c4cncc(Br)c4)o3)CN(C)[C@@H]1Cc1cn(C)c3cccc2c13` [Example 10, 1,6-Dimethyl-8β-methyl-[2-(5-bromo-pyridin-3-yl)-1,3,4-oxadiazol-5-yl]-10α-methoxy-ergoline]: the IC50 on 5-HT2 receptor is 890 nM; at D2 receptor it was 2510 nM; at 5-HT1A receptor, 11 nM.

The record behind these values is patent US6087371A, “Heterocyclyl-ergoline derivatives as 5-HT1A receptor ligands” (Pharmacia & Upjohn S.p.A., priority 1996, dated 2000).
